In the SangsterLogP compilation:

experiment: method code SF-AS, from DOI: 10.1016/0223-5234(92)90084-e; details: not given

logP | Compound
4.1 | CCc1cnc(-c2ccc(C(C)C(=O)O)cc2F)s1 (centres undefined)
3.74 | Cc1nc(-c2ccc(C(C)C(=O)O)cc2F)sc1C (centres undefined)
4.39 | CCc1cnc(-c2ccc(C(C)C(=O)O)cc2Cl)s1 (centres undefined)
4.41 | CC(C(=O)O)c1ccc(-c2nc3c(s2)CCCC3)cc1 (centres undefined)
3.94 | Cc1nc(-c2ccc(C(C)C(=O)O)cc2Cl)sc1C (centres undefined)
3.39 | CC(C(=O)O)c1ccc(-c2nccs2)c(Cl)c1 (centres undefined)
3.65 | Cc1csc(-c2ccc(C(C)C(=O)O)cc2Cl)n1 (centres undefined)
2.78 | COCc1csc(-c2ccc(C(C)C(=O)O)cc2)n1 (centres undefined)
2.47 | COc1cc(C(C)C(=O)O)ccc1-c1nccs1 (centres undefined)
3.75 | CCc1csc(-c2ccc(C(C)C(=O)O)cc2)n1 (centres undefined)
4.84 | CCCCc1csc(-c2ccc(C(C)C(=O)O)cc2Cl)n1 (centres undefined)
3.55 | Cc1cnc(-c2ccc(C(C)C(=O)O)cc2F)s1 (centres undefined)
3.66 | Cc1cnc(-c2ccc(C(C)C(=O)O)cc2Cl)s1 (centres undefined)
4.66 | CCCCc1csc(-c2ccc(C(C)C(=O)O)cc2F)n1 (centres undefined)
3.14 | CC(C(=O)O)c1ccc(-c2nccs2)c(F)c1 (centres undefined)
2.25 | CC(C(=O)O)c1ccc(-c2nc(CO)cs2)cc1 (centres undefined)
4.04 | CCCCc1csc(-c2ccc(C(C)C(=O)O)cc2)n1 (centres undefined)
3.99 | CCc1nc(-c2ccc(C(C)C(=O)O)cc2)sc1C (centres undefined)
3.36 | Cc1nc(-c2ccc(C(C)C(=O)O)cc2)sc1C (centres undefined)
2.06 | CC(C(=O)O)c1ccc(-c2nccs2)c([N+](=O)[O-])c1 (centres undefined)
3.03 | Cc1csc(-c2ccc(C(C)C(=O)O)cc2)n1 (centres undefined)
3.52 | Cc1csc(-c2ccc(C(C)C(=O)O)cc2F)n1 (centres undefined)

same assay, conditions: pH 2.0

logD | Compound
2.65 | CC(=O)c1csc(-c2ccc(C(C)C(=O)O)cc2)n1 (centres undefined)
2.45 | CNC(=O)c1csc(-c2ccc(C(C)C(=O)O)cc2)n1 (centres undefined)
3.58 | CCc1csc(-c2ccc(C(C)C(=O)O)cc2F)n1 (centres undefined)
4.04 | CC(C)c1csc(-c2ccc(C(C)C(=O)O)cc2F)n1 (centres undefined)
2.15 | CC(C(=O)O)c1ccc(-c2nc(C(=O)N(C)C)cs2)cc1 (centres undefined)
4.81 | CC(C(=O)O)c1ccc(-c2nc(-c3ccccc3)cs2)cc1 (centres undefined)
3.4 | C=CCc1csc(-c2ccc(C(C)C(=O)O)cc2)n1 (centres undefined)
3.78 | CC(C(=O)O)c1ccc(-c2nc(C(F)(F)F)cs2)cc1 (centres undefined)
3.54 | C=Cc1csc(-c2ccc(C(C)C(=O)O)cc2)n1 (centres undefined)
2.17 | CC(C(=O)O)c1ccc(-c2nc(C(N)=O)cs2)cc1 (centres undefined)
4.26 | CC(C)c1csc(-c2ccc(C(C)C(=O)O)cc2Cl)n1 (centres undefined)

same assay, conditions: pH 3.4

logD | Compound
2.45 | CC(C(=O)O)c1ccc(-c2nccs2)c(N)c1 (centres undefined)
